From patent US8552058B2, “Application of L-n-butylphthalide in preventing and treating dementia” (CSPC Zhongqi Pharmaceutical Technology (Shijazhuang) Co., …, priority 2004, dated 2013)
“Also recorded” adds a separate entry of the source.

What was measured:
[1] = system: rats with coriamyrtin-induced impaired learning and memory; settings: Shuren Yu et al. 1988, cited from earlier work
[2] = system: rats with permanent ligation of bilateral common carotid arteries (2-VO model); assay: Morris' water maze (training latency, platform exploration) in 2-VO hypoperfusion model; format: in vivo, Wistar rats; settings: for effect on detention time in the target quadrant (platform exploration test) / improvement of latency / search strategy in water maze: 2-VO rats; for improvement of latency / search strategy in water maze: vs solvent control; for amelioration of impaired short-term memory and spatial orientation (overall conclusion): 2-VO rats with poor blood supply to brain, L-NBP at 10 mg/kg, 10 mg/kg
[3] = system: rats with continuous perfusion of Aβ (1-40) into lateral ventricle; assay: Morris' water maze and working memory test after continuous i.c.v. perfusion of Aβ (1-40); format: in vivo, Wistar rats; settings: continuous perfusion of Aβ (1-40) into lateral ventricle, rats, Morris' water maze
Method: For Morris' Water Maze Automatic Monitor and experimental protocols, reference may be made to the experiments of learning and memory damage of rats induced by brain hypoperfusion.
Male Wistar rats, which were 10-weeks old and weighed approximately 280 grams, were used. One animal was placed in one cage, while the room temperature was kept at 23° C., with food and water freely accessible. Rats were anaesthetized with sodium pentobarbital (40 mg/kg), and were fixed to stereotaxic apparatus with the position of ventral decubitus. Head skin was cut open, a cannula for Aβ (1-40) perfusion was implanted into right ventricle. According to the stereotaxic profile of rat brain by Paxions and Watson, the implantation site was located 0.3 mm behind and 1.1 mm in the right side of anterior fontanelle, with the depth of 4.0 mm. The cannula was connected to a micro-osmotic pump. The pump was placed on the back of the rat. Aβ (1-40) was dissolved in 35% acetonitrile/0.1% trifluroacetic acid, and was continuously perfused intracerebroventricularly (i.c.v.) at 300 pmol/day, while only the solvent (35% acetonitrile/0.1% trifluroacetic acid) was perfused in the control group.
Rats were randomly classified into […] groups, with 10 animals per group. 1) the sham surgery group: only 35% acetonitrile/0.1% trifluroacetic acid+solvent was perfused into the ventricles of the rats; 2) the model group: Aβ (1-40)+solvent; 3) Aβ (1-40)+L-NBP 10 mg/kg group; 4) Aβ (1-40)+L-NBP 30 mg/kg group. Respective drug or solvent was drenched since the 2nd day after the surgery. The water maze experiment was performed on the 9-13 day after the surgery, while the platform exploration experiment was performed on the 13th day, and the working memory test was performed on the 14-16th days. Animals were decapitated to remove brains for biochemical assay on the 17th day. In all ethological tests, medicines were administered 40 minutes prior to the respective test.
The water maze training experiment was performed on the 9-13th day after icv Aβ (1-40), and the platform exploration experiment was performed on the 13 day after that. The working memory test was performed on the 14-16th day after icv Aβ (1-40) (see the figure above), which investigated the ability of rapid learning and spatial memory in animals when the platform and quadrant were changed, based on the fact that animals had memorized in some extent after training and platform exploration experiment. Experimental procedure was similar to the standard water maze training experiment except that the platform's location was changed every day. The experiment was conducted five times every day, allowing the rats to start swimming from five water-entry sites respectively. […] In the following 4 experiments, the location of the platform was kept constant, yet the water entry sites were within different quadrants. The latency of working memory was calculated by averaging those of the 2-5th experiments, and the ability of working memory of each rat was calculated by averaging the experimental values in 3 days.
All results were expressed in mean±standard error. Comparison of latencies between groups in water maze experiment was performed using two-factor analysis of variance in replicate. Comparison between groups was performed using post hoc LSD or Turkey test. Platform exploration test in water maze experiment, working memory test and biochemical assay were analyzed using one-factor analysis of variance. A difference was considered significant when p<0.05.

Compound	improvement of impaired learning and memory induced by coriamyrtin [1]	protection of hippocampal cells ([1]; coriamyrtin)	effect on detention time in the target quadrant (platform exploration test) ([2]; 10 mg/kg oral)	improvement of latency / search strategy in water maze ([2]; 10 mg/kg oral)	effect on detention time in the target quadrant (platform exploration test) ([2]; 30 mg/kg oral)	improvement of latency / search strategy in water maze ([2]; 30 mg/kg oral)	amelioration of impaired short-term memory and spatial orientation (overall conclusion) ([2]; listed as racemic (DL-))	amelioration of impaired short-term memory and spatial orientation (overall conclusion) ([2]; listed as racemic butylphthalide)	amelioration of impaired short-term memory and stereotaxic memory (overall conclusion) [3]	amelioration of impaired short-term memory and spatial orientation (overall conclusion) [2]	amelioration of impaired short-term memory and spatial orientation (overall conclusion) ([2]; listed as D-butylphthalide)
CCCCC1OC(=O)c2ccccc21 (racemic) [DL-NBP, 3-n-butylphthalide]	could be used to improve the impaired learning and memory	protect hippocampal cells	no effect	no significant effect of improvement; also recorded: no obvious improved effect	no effect	no significant effect of improvement; also recorded: no obvious improved effect	could not	neither racemic butylphthalide nor D-butylphthalide were effective	neither D-NBP nor DL-NBP showed similar effects		
CCCC[C@H]1OC(=O)c2ccccc21 [D-NBP, D-n-butylphthalide]						no significant effect of improvement; also recorded: no obvious improved effect			neither D-NBP nor DL-NBP showed similar effects	could not	neither racemic butylphthalide nor D-butylphthalide were effective
